Data on 34 compounds can be found in patent US11370774B2, “Substituted benzofuran, benzopyrrole, benzothiophene, and structurally related complement inhibitors” (BioCryst Pharmaceuticals, Inc., priority 2018, dated 2022).

The experiment addresses Factor D (Homo sapiens (Human), UniProt P00746). Put plainly: Factor D esterolytic assay (Z-Lys-SBzl substrate, DTNB, 405 nm). Type of experiment: biochemical. Conditions: Z-Lys-SBzl 1.29 mM, pH 7.5, 10% DMSO, tested a minimum of three times, read-out: Measured Ki (IC50) Value for Compounds: IC50. A digest of the protocol:
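Thioester hydrolysis (Z-Lys-SBzl, 1.29 mM) by human Factor D ([…]) detected through DTNB color at 405 nm over 600 sec, minus 690 nm background. Buffer: 100 mM HEPES pH 7.5, 500 mM NaCl, 10% DMSO; optional room-temperature preincubation before substrate. IC50 derived from percent rate inhibition; at least three runs.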

Structures are written as SMILES. A value given as a limit tells only on which side of the number the result lay.

Factor D, sequence (P00746 26-253): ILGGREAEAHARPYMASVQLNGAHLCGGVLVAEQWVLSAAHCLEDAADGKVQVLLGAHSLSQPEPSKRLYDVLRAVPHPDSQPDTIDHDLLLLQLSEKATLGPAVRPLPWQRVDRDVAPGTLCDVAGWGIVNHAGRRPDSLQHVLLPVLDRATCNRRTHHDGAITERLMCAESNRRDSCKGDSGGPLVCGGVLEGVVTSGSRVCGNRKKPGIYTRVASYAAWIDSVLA

A word on the IC50: it is the concentration at which inhibition is half-maximal. In the case of `NCc1cccc(-c2cc(N(Cc3ccccc3CC(=O)O)C(=O)OCc3ccccc3)cc3ccoc23)c1` [Compound 404c, 2-(2-(((7-(3-(aminomethyl)phenyl)benzofuran-5-yl)((benzyloxy)carbonyl)amino)methyl)phenyl)acetic acid], the IC50 was less than 1 µM.

Turning to `NC(CF)c1cc(-c2cc(COc3ccccc3CC(=O)O)cc3ccoc23)ccn1` (single isomer, unassigned; (-)) [Compound 326g, (−)-2-(2-((7-(2-(1-amino-2-fluoroethyl)pyridin-4-yl)benzofuran-5-yl)methoxy)phenyl)acetic acid], the 50% inhibitory concentration (IC50) was 1 to 10 µM. In the case of `NCc1cccc(-c2cc(COc3ccccc3CC(=O)O)cc3[nH]ccc23)c1` [Compound 70a, 2-(2-((4-(3-(aminomethyl)phenyl)-1H-indol-6-yl)methoxy)phenyl)acetic acid], the IC50 was less than 1 µM. As to `Cc1ccc(CC(=O)O)c(NC(=O)c2nc(-c3cc(F)cc(CN)c3)nn3cccc23)c1` [Compound 63c, 2-(2-(2-(3-(aminomethyl)-5-fluorophenyl)pyrrolo[2,1-f][1,2,4]triazine-4-carboxamido)-4-methylphenyl)acetic acid], the IC50 was less than 1 µM. Next, `C[C@H](N)c1cccc(-c2nc(C(=O)Nc3ccccc3CC(=O)O)c3cccn3n2)c1` [Compound 29d, (S)-2-(2-(2-(3-(1-aminoethyl)phenyl)pyrrolo[2,1-f][1,2,4]triazine-4-carboxamido)phenyl)acetic acid]: 1 to 10 µM; `Cc1cc(-c2ccc(CC(=O)O)c(OCc3cc(-c4cccc(CN)c4)c4occc4c3)c2)cnc1F` [Compound 322c, 2-(2-((7-(3-(aminomethyl)phenyl)benzofuran-5-yl)methoxy)-4-(6-fluoro-5-methylpyridin-3-yl)phenyl)acetic acid]: less than 1 µM.

In the case of `CC(=O)c1ccc(CC(=O)O)c(OCc2cc(-c3ccnc(CN)c3)c3occc3c2)c1` [Compound 511e, 2-(4-acetyl-2-((7-(2-(aminomethyl)pyridin-4-yl)benzofuran-5-yl)methoxy)phenyl)acetic acid], the IC50 was less than 1 µM. Next, `Nc1ccc(-c2cc(COc3ccccc3CC(=O)O)cc3ccoc23)cc1` [Compound 183c, 2-(2-((7-(4-aminophenyl)benzofuran-5-yl)methoxy)phenyl)acetic acid]: more than 10 µM; `NCc1cccc(-c2cc(COc3ccccc3CC(=O)O)cc3cccnc23)c1` [Compound 285e, 2-(2-((8-(3-(aminomethyl)phenyl)quinolin-6-yl)methoxy)phenyl)acetic acid]: less than 1 µM. Regarding `CC(=O)Nc1ccc(CC(=O)O)c(OCc2cc(-c3cccc(CN)c3)c3occc3c2)c1` [Compound 224c, 2-(4-acetamido-2-((7-(3-(aminomethyl)phenyl)benzofuran-5-yl)methoxy)phenyl)acetic acid], the IC50 is less than 1 µM. For the compound `NCc1cccc(-c2cc(COc3ccccc3CC(=O)O)cc3c2cnn3CC2CC2)c1F` [Compound 127b, 2-(2-((4-(3-(aminomethyl)-2-fluorophenyl)-1-(cyclopropylmethyl)-1H-indazol-6-yl)methoxy)phenyl)acetic acid], the IC50 is less than 1 µM. Consider `NCc1nccc(-c2cc(COc3ccccc3CC(=O)O)c(F)c3ccoc23)c1F` [Compound 171c, 2-(2-((7-(2-(aminomethyl)-3-fluoropyridin-4-yl)-4-fluorobenzofuran-5-yl)methoxy)phenyl)acetic acid], for which the IC50 is less than 1 µM. Regarding `CCc1ccc(CC(=O)O)c(OCc2cc(-c3cccc(CN)c3)c3occc3c2)c1` [Compound 316b, 2-(2-((7-(3-(aminomethyl)phenyl)benzofuran-5-yl)methoxy)-4-ethylphenyl)acetic acid], the IC50 was less than 1 µM. For `CCc1ccc(CC(=O)O)c(OCc2cc(-c3ccnc(CN)c3F)c3occc3c2)c1` [Compound 375c, 2-(2-((7-(2-(aminomethyl)-3-fluoropyridin-4-yl)benzofuran-5-yl)methoxy)-4-ethylphenyl)acetic acid], the IC50 was less than 1 µM.

Regarding `NCc1cccc(-c2cc(COc3ccc(F)cc3CC(=O)O)c(F)c3ccoc23)c1` [Compound 386c, 2-(2-((7-(3-(aminomethyl)phenyl)-4-fluorobenzofuran-5-yl)methoxy)-5-fluorophenyl)acetic acid], the IC50 was less than 1 µM. Turning to `NCc1cccc(-c2cc(COc3cc(-c4cccnc4)ccc3CC(=O)O)cc3ccoc23)c1` [Compound 319c, 2-(2-((7-(3-(aminomethyl)phenyl)benzofuran-5-yl)methoxy)-4-(pyridin-3-yl)phenyl)acetic acid], the IC50 is less than 1 µM. Take `NCc1cccc(-c2cc(C(=O)Nc3ccccc3CC(=O)O)cc3[nH]ccc23)c1` [Compound 9d, 2-(2-(4-(3-(aminomethyl)phenyl)-1H-indole-6-carboxamido)phenyl)acetic acid]: the IC50 was less than 1 µM. For the compound `NCc1nccc(-c2cc(COc3ccccc3CC(=O)O)cc3c2ccn3C(F)(F)F)c1F` [Compound 533c, 2-(2-((4-(2-(aminomethyl)-3-fluoropyridin-4-yl)-1-(trifluoromethyl)-1H-indol-6-yl)methoxy)phenyl)acetic acid], the IC50 was less than 1 µM. Turning to `NC(CF)c1cccc(-c2cc(COc3ccccc3CC(=O)O)cc3ccoc23)c1F` (single isomer, unassigned; (+)) [Compound 402f, (+)-2-(2-((7-(3-(1-amino-2-fluoroethyl)-2-fluorophenyl)benzofuran-5-yl)methoxy)phenyl)acetic acid], the IC50 was less than 1 µM. On to `Cc1ccc(CC(=O)O)c(OCc2cc(-c3ccnc(CN)c3F)c3occc3c2F)c1` [Compound 342e, 2-(2-((7-(2-(aminomethyl)-3-fluoropyridin-4-yl)-4-fluorobenzofuran-5-yl)methoxy)-4-methylphenyl)acetic acid], for which the IC50 is less than 1 µM.

For `COc1ccc(CC(=O)O)c(OCc2cc(-c3ccnc(CN)c3)c3occc3c2)c1` [Compound 482b, 2-(2-((7-(2-(aminomethyl)pyridin-4-yl)benzofuran-5-yl)methoxy)-4-methoxyphenyl)acetic acid], the IC50 was less than 1 µM.

Take `NCc1ccc(CC(=O)O)c(OCc2cc(-c3cccc(C(N)CF)c3)c3occc3c2)c1` (single isomer, unassigned; (+)) [Compound 410d, (+)-2-(2-((7-(3-(1-amino-2-fluoroethyl)phenyl)benzofuran-5-yl)methoxy)-4-(aminomethyl)phenyl)acetic acid]: the concentration for half-maximal inhibition (IC50) was less than 1 µM. Regarding `NCc1ccc(-c2cc(COc3ccccc3CC(=O)O)cc3ccoc23)cc1` [Compound 193c, 2-(2-((7-(4-(aminomethyl)phenyl)benzofuran-5-yl)methoxy)phenyl)acetic acid], the IC50 was in the range of 1 to 10 µM. For `NCc1cccc(-c2cc(COc3cc(CN)ccc3CC(=O)O)cc3ccoc23)c1` [Compound 236d, 2-(4-(aminomethyl)-2-((7-(3-(aminomethyl)phenyl)benzofuran-5-yl)methoxy)phenyl)acetic acid], the concentration for half-maximal inhibition (IC50) was less than 1 µM. Regarding `COCCOCCOCCOCc1cc2cc(COc3ccccc3CC(=O)O)cc(-c3cccc(CN)c3)c2o1` [Compound 344f, 2-(2-((7-(3-(aminomethyl)phenyl)-2-(2,5,8,11-tetraoxadodecyl)benzofuran-5-yl)methoxy)phenyl)acetic acid], the IC50 was less than 1 µM. Take `CS(=O)(=O)n1ccc2c(-c3cccc(CN)c3)cc(COc3ccccc3CC(=O)O)cc21` [Compound 192e, 2-(2-((4-(3-(aminomethyl)phenyl)-1-(methylsulfonyl)-1H-indol-6-yl)methoxy)phenyl)acetic acid]: the IC50 is less than 1 µM.

For the compound `Cc1nc2cc(COc3ccccc3CC(=O)O)cc(-c3cccc(CN)c3)c2o1` [Compound 91h, 2-(2-((7-(3-(aminomethyl)phenyl)-2-methylbenzo[d]oxazol-5-yl)methoxy)phenyl)acetic acid], the IC50 is less than 1 µM. As for `CC(C)c1cc2cc(COc3ccccc3CC(=O)O)cc(-c3cccc(CN)c3)c2o1` [Compound 108f, 2-(2-((7-(3-(aminomethyl)phenyl)-2-isopropylbenzofuran-5-yl)methoxy)phenyl)acetic acid], the IC50 was less than 1 µM.

Consider `NCc1cccc(-c2c(F)c(COc3ccccc3CC(=O)O)cc3ccoc23)c1` [Compound 473e, 2-(2-((7-(3-(aminomethyl)phenyl)-6-fluorobenzofuran-5-yl)methoxy)phenyl)acetic acid], for which the IC50 was less than 1 µM.

Regarding `COCc1cc2cc(COc3cc(OC)ccc3CC(=O)O)cc(-c3cccc(CN)c3)c2o1` [Compound 466c, 2-(2-((7-(3-(aminomethyl)phenyl)-2-(methoxymethyl)benzofuran-5-yl)methoxy)-4-methoxyphenyl)acetic acid], the IC50 was less than 1 µM. Consider `NCc1cccc(-c2cc(COc3cc(C(F)(F)F)ccc3CC(=O)O)cc3ccoc23)c1` [Compound 288f, 2-(2-((7-(3-(aminomethyl)phenyl)benzofuran-5-yl)methoxy)-4-(trifluoromethyl)phenyl)acetic acid], for which the IC50 was less than 1 µM. Turning to `NCCCNCc1cc2cc(COc3ccccc3CC(=O)O)cc(-c3cccc(CN)c3)c2o1` [Compound 195d, 2-(2-((7-(3-(aminomethyl)phenyl)-2-(((3-aminopropyl)amino)methyl)benzofuran-5-yl)methoxy)phenyl)acetic acid], the IC50 is less than 1 µM. For `NCc1ccnc(-c2cc(COc3ccccc3CC(=O)O)cc3ccoc23)c1` [Compound 110c, 2-(2-((7-(4-(aminomethyl)pyridin-2-yl)benzofuran-5-yl)methoxy)phenyl)acetic acid] the value was less than 1 µM; for `NCc1nccc(-c2cc(COc3ccccc3CC(=O)O)cc3c2ccn3CC2CC2)c1F` [Compound 170b, 2-(2-((4-(2-(aminomethyl)-3-fluoropyridin-4-yl)-1-(cyclopropylmethyl)-1H-indol-6-yl)methoxy)phenyl)acetic acid], less than 1 µM.
